In paper PMC5696560 (Bioorganic & Medicinal Chemistry Letters, 2017):
≈ marks a conversion by molar mass, not a printed value.

Tests used:
M.tb strain H37Rv [1] = assay: MABA: inhibition of growth of M.tb H37Rv under aerobic (replicating) conditions; type: cell-based; details: for anti-M.tb activity (in words): M.tb H37Rv, comparison with 1; for MIC90 / MIC: Mycobacterium tuberculosis, H37RV; for MIC: read-out: MIC90 MABA
M.tb strain H37Rv [2] = assay: LORA: inhibition of growth of M.tb H37Rv under non-replicating conditions; type: cell-based; details: Mycobacterium tuberculosis
Protocol: The compounds were evaluated for their inhibition of growth (measured as MIC90 values in µg/mL) against M.tb (strain H37Rv) under both replicating (MABA)[16] or non-replicating (LORA)[17] conditions. […] In a search for less lipophilic analogues, we prepared and evaluated compounds where this phenyl B-ring unit was replaced with different heterocycles of varying lipophilicity (Table 1).

CYP 3A4 = CYP 3A4 (Homo sapiens, UniProt P08684); assay: Inhibition of CYP 3A4; type: in vitro ADME; details: 20 min exposure
[3] = human, microsomes
[4] = rat, in vivo
in vitro = details: human, human liver microsomes
M.tb strain H37Rv [5] = assay: MICs determined at Tibotec (slightly different protocol); type: cell-based; details: Mycobacterium tuberculosis, MICs determined at Tibotec (Mechelen, Belgium), read-out: MIC90 (MABA, footnote d)
Excerpt: Given that good activity had been reported for furan 2 (albeit in M. smegmatis),[11] we evaluated a series of both 2- and 3-furyl analogues bearing different C-unit substituents.

CYP 3A4, sequence (P08684 whole entry, species assumed): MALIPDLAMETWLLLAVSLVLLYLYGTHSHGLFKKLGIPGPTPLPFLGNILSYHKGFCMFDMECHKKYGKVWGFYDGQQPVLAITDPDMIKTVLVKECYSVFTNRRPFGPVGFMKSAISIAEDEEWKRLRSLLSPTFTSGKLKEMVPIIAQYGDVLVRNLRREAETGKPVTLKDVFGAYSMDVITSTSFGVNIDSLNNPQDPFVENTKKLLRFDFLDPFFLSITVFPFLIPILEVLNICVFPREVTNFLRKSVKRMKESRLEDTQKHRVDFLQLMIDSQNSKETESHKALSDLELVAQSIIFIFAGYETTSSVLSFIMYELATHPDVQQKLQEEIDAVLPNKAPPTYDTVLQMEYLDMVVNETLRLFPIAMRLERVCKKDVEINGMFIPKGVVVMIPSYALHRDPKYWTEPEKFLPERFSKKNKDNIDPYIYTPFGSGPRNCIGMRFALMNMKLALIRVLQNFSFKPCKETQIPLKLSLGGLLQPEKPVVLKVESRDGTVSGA

Structure (SMILES)	MIC90 (M.tb strain H37Rv [1]) [µg/mL]	MIC90 (M.tb strain H37Rv [2]) [µg/mL]	MIC90 (M.tb strain H37Rv [5]) [µg/mL]	other results
COc1nc2ccc(Br)cc2cc1[C@@H](c1cc(C)c(C)s1)[C@@](O)(CCN(C)C)c1cccc(F)c1 [Compound 9]	0.06 (≈ 0.108 µM)	0.11 (≈ 0.197 µM)		anti-M.tb activity (in words) (M.tb strain H37Rv [1]): comparable activity to 1; MIC (M.tb strain H37Rv [1]): 0.05 to 0.58 µg/mL (≈ 0.0897 to 1.04 µM); IC50 (CYP 3A4): 10 µM; Clint [3]: 12 µL/min/mg/protein; F(%) oral bioavailability [4]: 48%; half-life (in vitro): 60 min
COc1nc2ccc(C#N)cc2cc1C(c1ccoc1)C(O)(CCN(C)C)c1cccc(F)c1 (centres unmarked) [Compound 23]			1.08 (≈ 2.35 µM)	
COc1ccc(C(c2cc3cc(C#N)ccc3nc2OC)C(O)(CCN(C)C)c2cccc(F)c2)s1 (centres unmarked) [Compound 14]			0.7 (≈ 1.38 µM)	
COc1cccc(C(O)(CCN(C)C)C(c2ccco2)c2cc3cc(Br)ccc3nc2OC)c1OC (centres unmarked) [Compound 18]			0.71 (≈ 1.28 µM)	
COc1ncccc1C(c1cc2cc(Br)ccc2nc1OC)C(O)(CCN(C)C)c1cccc(F)c1 (centres unmarked) [Compound 29]			0.12 (≈ 0.216 µM)	
COc1nc2ccc(Br)cc2cc1C(c1ccc(C)s1)C(O)(CCN(C)C)c1cccc(F)c1 (centres unmarked) [Compound 11]			0.47 (≈ 0.865 µM)	
COc1cccc(C(O)(CCN(C)C)C(c2ccoc2)c2cc3cc(Br)ccc3nc2OC)c1OC (centres unmarked) [Compound 26]			1.16 (≈ 2.09 µM)	
COc1nc2ccc(C#N)cc2cc1[C@@H](c1ccnc(OC)c1OC)[C@@](O)(CCN(C)C)c1cccc(C)c1 [Compound 46]	0.15 (≈ 0.285 µM)	0.14 (≈ 0.266 µM)		
COc1nc2ccc(Br)cc2cc1C(c1ccco1)C(O)(CCN(C)C)c1cccc(F)c1 (centres unmarked) [Compound 15]			0.74 (≈ 1.44 µM)	
COc1nc2ccc(Br)cc2cc1C(c1ccoc1)C(O)(CCN(C)C)c1cccc(OC(F)(F)F)c1 (centres unmarked) [Compound 25]			0.76 (≈ 1.31 µM)	
COc1ncccc1[C@H](c1cc2cc(C#N)ccc2nc1OC)[C@@](O)(CCN(C)C)c1cccc(C)c1 [Compound 31]	0.3 (≈ 0.604 µM)	0.15 (≈ 0.302 µM)		
COc1nc2ccc(Br)cc2cc1C(c1ccco1)C(O)(CCN(C)C)c1cccc(C#N)c1 (centres unmarked) [Compound 21]			1.96 (≈ 3.77 µM)	
COc1nc2ccc(C#N)cc2cc1[C@@H](c1cc(C)c(C)s1)[C@@](O)(CCN(C)C)c1cccc(F)c1 [Compound 10]	0.05 (≈ 0.0993 µM)	0.2 (≈ 0.397 µM)		anti-M.tb activity (in words) (M.tb strain H37Rv [1]): equally potent; MIC (M.tb strain H37Rv [1]): 0.05 to 0.58 µg/mL (≈ 0.0993 to 1.15 µM)
COc1cccc([C@](O)(CCN(C)C)[C@@H](c2cc3cc(Br)ccc3nc2OC)c2cc(C)sc2C)c1OC (racemic) [Compound 4]	0.5 (≈ 0.834 µM)	0.27 (≈ 0.45 µM)		MIC (M.tb strain H37Rv [1]): 0.05 to 0.58 µg/mL (≈ 0.0834 to 0.967 µM)
COc1nc2ccc(Br)cc2cc1C(c1ccco1)C(O)(CCN(C)C)c1cccc2c1OCO2 (centres unmarked) [Compound 19]			0.69 (≈ 1.28 µM)	
COc1ncccc1[C@H](c1cc2cc(Br)ccc2nc1OC)[C@@](O)(CCN(C)C)c1cccc(C#N)c1 [Compound 33]	0.34 (≈ 0.606 µM)	0.75 (≈ 1.34 µM)		
COc1nc2ccc(C#N)cc2cc1[C@@H](c1cc(C)sc1C)[C@@](O)(CCN(C)C)c1cncc(C)c1 [Compound 7]	1.94 (≈ 3.87 µM)	1.1 (≈ 2.2 µM)		anti-M.tb activity (in words) (M.tb strain H37Rv [1]): less active; MIC (M.tb strain H37Rv [1]): 0.05 to 0.58 µg/mL (≈ 0.0999 to 1.16 µM)
COc1nc2ccc(Br)cc2cc1[C@@H](c1ccnc(OC)c1OC)[C@@](O)(CCN(C)C)c1cccc(F)c1 [Compound 44]	0.02 (≈ 0.0342 µM)	0.07 (≈ 0.12 µM)		
COc1nc2ccc(Br)cc2cc1[C@@H](c1cc(C)sc1C)[C@@](O)(CCN(C)C)c1cccnc1OC [Compound 8]	0.12 (≈ 0.21 µM)	0.2 (≈ 0.351 µM)		MIC (M.tb strain H37Rv [1]): 0.05 to 0.58 µg/mL (≈ 0.0876 to 1.02 µM)
COc1cccc([C@](O)(CCN(C)C)[C@H](c2cncc(C)c2)c2cc3cc(Br)ccc3nc2OC)c1 [Compound 40]	1.9 (≈ 3.45 µM)	2.2 (≈ 4 µM)		
COc1nc2ccc(Br)cc2cc1[C@@H](c1cc(C)sc1C)[C@@](O)(CCN(C)C)c1cccc(C#N)c1 [Compound 3, 3-(1-(6-Bromo-2-methoxyquinolin-3-yl)-4-(dimethylamino)-1-(2,5-dimethylthiophen-3-yl)-2-hydroxybutan-2-yl)benzonitrile]	0.12 (≈ 0.213 µM)			MIC (M.tb strain H37Rv [1]): 0.05 to 0.58 µg/mL (≈ 0.0886 to 1.03 µM)
COc1cccc([C@](O)(CCN(C)C)[C@@H](c2cc3cc(Br)ccc3nc2OC)c2cc(C)sc2C)n1 [Compound 5]	0.12 (≈ 0.21 µM)	0.15 (≈ 0.263 µM)		MIC (M.tb strain H37Rv [1]): 0.05 to 0.58 µg/mL (≈ 0.0876 to 1.02 µM)
COc1nc2ccc(Br)cc2cc1[C@@H](c1cccnc1N(C)C)[C@@](O)(CCN(C)C)c1cccc(F)c1 [Compound 35]	0.18 (≈ 0.317 µM)	0.2 (≈ 0.352 µM)		IC50 (CYP 3A4): > 50 µM; Clint [3]: 45 µL/min/mg/protein; half-life (in vitro): 15 min
COc1nc2ccc(Br)cc2cc1C(c1ccoc1)C(O)(CCN(C)C)c1cccc(F)n1 (centres unmarked) [Compound 24]			0.68 (≈ 1.32 µM)	

Structure (SMILES)	MIC90 (M.tb strain H37Rv [1]) [µg/mL]	MIC90 (M.tb strain H37Rv [2]) [µg/mL]	MIC90 (M.tb strain H37Rv [5]) [µg/mL]	other results
COc1nc2ccc(Br)cc2cc1[C@@H](c1ccnc(OC)c1OC)[C@@](O)(CCN(C)C)c1cccc(C#N)c1 [Compound 49]	0.13 (≈ 0.22 µM)	0.21 (≈ 0.355 µM)		IC50 (CYP 3A4): > 10 µM; Clint [3]: 19 µL/min/mg/protein; F(%) oral bioavailability [4]: 68%; oral bioavailability (in words) [4]: comparable to that of 1; half-life (in vitro): 37 min
COc1nc2ccc(Br)cc2cc1[C@@H](c1ccnc(OC)c1OC)[C@@](O)(CCN(C)C)c1cccc(C)c1 [Compound 45]	0.02 (≈ 0.0345 µM)	0.04 (≈ 0.0689 µM)		IC50 (CYP 3A4): > 10 µM; Clint [3]: 13 µL/min/mg/protein; F(%) oral bioavailability [4]: 40%; half-life (in vitro): 52 min
COc1nc2ccc(Br)cc2cc1[C@@H](c1ccc(SC)nc1)[C@@](O)(CCN(C)C)c1cccc(F)c1 [Compound 38]	0.14 (≈ 0.245 µM)	0.37 (≈ 0.649 µM)		
COc1ncccc1[C@H](c1cc2cc(Br)ccc2nc1OC)[C@@](O)(CCN(C)C)c1cccc(C)c1 [Compound 30]	0.13 (≈ 0.236 µM)	0.25 (≈ 0.454 µM)		
COc1ccc([C@H](c2cc3cc(Br)ccc3nc2OC)[C@@](O)(CCN(C)C)c2cccnc2OC)s1 [Compound 13]	0.24 (≈ 0.419 µM)	0.53 (≈ 0.926 µM)		anti-M.tb activity (in words) (M.tb strain H37Rv [1]): effective inhibitors
COc1cccc([C@](O)(CCN(C)C)[C@@H](c2cc3cc(Br)ccc3nc2OC)c2ccnc(OC)c2OC)c1OC [Compound 50]			0.21 (≈ 0.335 µM)	
COc1nc2ccc(Br)cc2cc1C(c1ccoc1)C(O)(CCN(C)C)c1cccc(F)c1 (centres unmarked) [Compound 22, 1-(6-Bromo-2-methoxyquinolin-3-yl)-4-(dimethylamino)-2-(3-fluorophenyl)-1-(furan-3-yl)butan-2-ol]			0.74 (≈ 1.44 µM)	
COc1nc2ccc(Br)cc2cc1C(c1ccoc1)C(O)(CCN(C)C)c1cccc2c1OCO2 (centres unmarked) [Compound 27]			0.9 (≈ 1.67 µM)	
COc1nc2ccc(C#N)cc2cc1C(c1ccco1)C(O)(CCN(C)C)c1cccc(F)c1 (centres unmarked) [Compound 16]			1.79 (≈ 3.9 µM)	
COc1nc2ccc(Br)cc2cc1C(c1ccoc1)C(O)(CCN(C)C)c1ccccn1 (centres unmarked) [Compound 28]			1.8 (≈ 3.63 µM)	
COc1cc([C@H](c2cc3cc(Br)ccc3nc2OC)[C@@](O)(CCN(C)C)c2cccc(F)c2)cnc1OC [Compound 43]	0.47 (≈ 0.804 µM)	0.54 (≈ 0.924 µM)		IC50 (CYP 3A4): > 10 µM; Clint [3]: 36 µL/min/mg/protein; F(%) oral bioavailability [4]: 36%; half-life (in vitro): 19 min
COc1ncccc1[C@H](c1cc2cc(C#N)ccc2nc1OC)[C@@](O)(CCN(C)C)c1cccc(C#N)c1 [Compound 34]	0.38 (≈ 0.749 µM)	0.82 (≈ 1.62 µM)		
COc1nc2ccc(Br)cc2cc1[C@@H](c1cc(C)sc1C)[C@@](O)(CCN(C)C)c1cncc(C)c1 (racemic) [Compound 6]	0.58 (≈ 1.05 µM)	0.3 (≈ 0.541 µM)		MIC (M.tb strain H37Rv [1]): 0.05 to 0.58 µg/mL (≈ 0.0902 to 1.05 µM)
CCSc1ccc([C@H](c2cc3cc(Br)ccc3nc2OC)[C@@](O)(CCN(C)C)c2cccc(F)c2)cn1 [Compound 39]	0.14 (≈ 0.239 µM)	0.15 (≈ 0.257 µM)		IC50 (CYP 3A4): 10 µM; Clint [3]: 11 µL/min/mg/protein; F(%) oral bioavailability [4]: 30%; half-life (in vitro): 64 min
COc1nc2ccc(Br)cc2cc1[C@@H](c1ccc(N(C)C)nc1)[C@@](O)(CCN(C)C)c1cccc(F)c1 [Compound 36]	0.08 (≈ 0.141 µM)	0.15 (≈ 0.264 µM)		IC50 (CYP 3A4): > 10 µM; Clint [3]: 38 µL/min/mg/protein; F(%) oral bioavailability [4]: 45%; half-life (in vitro): 18 min
COc1nc2ccc(Br)cc2cc1C(c1ccco1)C(O)(CCN(C)C)c1cccc(OC(F)(F)F)c1 (centres unmarked) [Compound 17]			0.76 (≈ 1.31 µM)	
COc1cccc([C@](O)(CCN(C)C)[C@@H](c2cc3cc(Br)ccc3nc2OC)c2ccnc(OC)c2OC)c1 [Compound 47]	< 0.02			anti-M.tb activity (in words) (M.tb strain H37Rv [1]): retain the potency of 1
CCN(CC)c1ccc([C@H](c2cc3cc(Br)ccc3nc2OC)[C@@](O)(CCN(C)C)c2cccc(F)c2)cn1 [Compound 37]	0.02 (≈ 0.0336 µM)			
COc1nc2ccc(Br)cc2cc1[C@@H](c1cncc(C)c1)[C@@](O)(CCN(C)C)c1cccc(C#N)c1 [Compound 41]	1.32 (≈ 2.42 µM)	3.38 (≈ 6.2 µM)		
COc1nc2ccc(Br)cc2cc1C(c1ccco1)C(O)(CCN(C)C)c1ccccn1 (centres unmarked) [Compound 20]			1.95 (≈ 3.93 µM)	
COc1nc2ccc(Br)cc2cc1[C@@H](c1cncc(C)c1)[C@@](O)(CCN(C)C)c1cccc(F)c1 [Compound 42]	0.53 (≈ 0.984 µM)	0.97 (≈ 1.8 µM)		IC50 (CYP 3A4): 4.6 µM; Clint [3]: 56 µL/min/mg/protein; F(%) oral bioavailability [4]: 24%; half-life (in vitro): 12 min
COc1nc2ccc(Br)cc2cc1[C@@H](c1ccc(C)s1)[C@@](O)(CCN(C)C)c1cccnc1OC [Compound 12]	0.22 (≈ 0.395 µM)	0.52 (≈ 0.934 µM)		anti-M.tb activity (in words) (M.tb strain H37Rv [1]): effective inhibitors
COc1nc2ccc(Br)cc2cc1[C@@H](c1ccnc(OC)c1OC)[C@@](O)(CCN(C)C)c1cccc(OC(F)F)c1 [Compound 48]	< 0.02			anti-M.tb activity (in words) (M.tb strain H37Rv [1]): retain the potency of 1; IC50 (CYP 3A4): > 10 µM; Clint [3]: 11 µL/min/mg/protein; half-life (in vitro): 61 min
